Reference: patent publication US6653344B2, “Pharmaceutical preparations containing a dibenzocyclooctane lignan derivative for treatment of neurodegenerative disease” (Elcom Bio Technology Co., Ltd., priority 2000, dated 2003)

Key:
Assay type in all cases: cell-based
[1] = system: NMDA-insulted primary cultured rat cortical cells; experiment: Neuroprotection against NMDA-induced toxicity, cell viability by MTT assay; conditions: for Viability (%) NMDA-insulted: compound 1 µM for 1 hr, then 50 µM NMDA, 24 hr
Procedure: (§1) Primary cultures of mixed cortical cells containing both neuron and glia were prepared from fetal rats as described previously (Kim Y C, Kim S R, Markelonis G J and Oh T H (1998) Ginsenosides Rb1 and Rg3 protect cultured rat cortical cells from glutamate-induced neurodegeneration. J. Neurosci. Res. 53: 426-432).
(§2) The cortical cells were plated onto collagen-coated dishes at a density of 1×10^6 cells/ml. The cultured cells were grown in DMEM supplemented with 10% heat-inactivated fetal calf serum, 1 mM sodium pyruvate, 100 IU/ml pecicillin and 100 μg/ml streptomycin at 37° C. in a humidified atmosphere of 95% air/5% CO2. cultures were allowed to mature for 2 weeks before being used for experiments.
(§3) To culture broth of the cortical cells during being cultured, MTT(5 mg/ml) was added by 10% of the culture broth. The broth was cultured for more 3 hours. The formed formazan was dissolved by DMSO and was assayed absorption at 540 nm ((Mosmann T (1983) Rapid colorimetric assay for cellular growth and survival: Application to proliferation and cytotoxicity assays. J. Immuno. Methods 65: 55-61)
(§4) Glutamate receiptor is divided into NMDA receiptor which is activated by NMDA and non-NMDA receiptor which is activated by alpha-amino-3-hydroxy-5-methyl-4-isoxazole and kainic acid (KA). To first cultured cortical cells, the above compounds were each treated. The neuro-protective activities of the compounds were measured, after toxicities were induced by NMDA, the NMDA receiptor agonist, or KA, the non-NMDA receiptor agonist.
(§5) Rat cortical cultures were treated with compounds at the concentration of 1 M for 1 hr. The cultures were then exposed to 50 µM NMDA or 50 µM KA and were maintained for an additional 24 hr. […]. Cell viability was measured by the MTT assay. Optical density of control, NMDA- and KA treated were 1.20±0.10, 0.77±0.05 and 0.85±0.08, respectively. Viability was calculated as the same as Table 1. Values given represent the mean SD (n=3).

[2] = system: KA-insulted primary cultured rat cortical cells; experiment: Neuroprotection against KA-induced toxicity, cell viability by MTT assay; conditions: for Viability (%) KA-insulted: compound 1 µM for 1 hr, then 50 µM KA, 24 hr
Procedure: as §1, §2, §3, §4, §5

[3] = system: intracellular Ca2+ ([Ca2+]i) in glutamate-damaged primary cultured rat cortical cells; experiment: Measurement of Ca2+ concentration in cells (Fura-2 AM); conditions: for Protection ([Ca2+]i): compound 1 M (1 μM) for 1 hr before 100 M glutamate; for Protection ([Ca2+]i) / [Ca2+]i: 24 hr; for [Ca2+]i: compound for 1 hr, control 85.6, glutamate-treated 419.0
Procedure: Therefore, the effects of Ca^2+ influx by glutamate according to deoxyschizandrin, gomisin N and wuweizisu C were investigated.
(§6) Rat cortical cultures were treated with compounds at the concentration of 1 M for 1 hr before exposure to 100 M glutamate and then maintained for 24 hr. Values given represent the mean SD (n=3).

[4] = system: nitric oxide (NO) content in glutamate-damaged primary cultured rat cortical cells; experiment: Measurement of nitrite (Griess reagent), NO content; conditions: 24 hr; for Nitrate: compound 1 µM for 1 hr before 100 µM glutamate, control 90.2, glutamate-treated 141.8; for Protection (NO content): compound 1 M (1 μM) for 1 hr before 100 M glutamate
Procedure: The content of nitrite isolated into culture broth from first cultured cortical cells was assayed by using Griess reagent by Dawson's method (Dawson V L, Brahbhatt H P, Mong J A and Dawson T M (1994) Expression of inducible nitric oxide synthase causes delayed neurotoxicity in primary neuronal-glial cortical cultures. Neuropharmacology 33: 1425-1430).
(§7) In case glutamate is treated to first cultured cortical cells of mice, formation of NO is increased. […] When schizandrin is treated at the 1 μM concentration, it decreased NO content increased by glutamate. […] When deoxyschizandrin, gomisin N and wuweizisu C are treated at 1 uM concentration to first cultured cortical cells toxicity-induced by glutamate, those maintained about 50% of normal state activity of GSH-px and glutathione decreased by glutamate and have protective activity on the activity of antioxidant enzymes.
as §6

[5] = system: GSH-px activity in glutamate-injured primary cultured rat cortical cells; experiment: Measurement of glutathione peroxidase activity (GSH-px); conditions: 24 hr; for GSH-px: compound 1 µM for 1 hr before 100 µM glutamate, control 18.7, glutamate-treated 9.2; for Protection (GSH-px activity): compound 1 M (1 uM) for 1 hr before 100 M glutamate
Procedure: (§8) Cells were collected by adding 0.1M potassium phosphate buffer (pH 7.4) to culture-broth-removed remainings from first cultured cortical cells. The collected cells were treated by supersonic wave for 20 seconds and were centrifuged at 4° C. with 3,000 g for 20 minutes to obtain the supernatant.
1 ml solution in test tube comprising 100 mM potassium phosphate buffer (pH 7.4), 1 mM reduced glutathione (GSH), 0.2 mM NADPH, 0.5 mM H2O2 and 1.5 units/ml of GSSG-reductase (GSSG-r) was prepared and 10 μl of cell supernatant was added and reacted. The loss of adsoption at 340 nm was assayed and the activity of GSH-px was measured.
as §7, §6

[6] = system: MDA content in glutamate-injured primary cultured rat cortical cells; experiment: Measurement of malondialdehyde (MDA) content, lipid peroxidation; conditions: for Protection (MDA content, lipid-peroxidation) / MDA: compound 1 µM for 1 hr before 100 µM glutamate, 24 hr; for MDA: control 70.2, glutamate-treated 198.2
Procedure: as §8
To 500 μl of cell supernatant, 500 μl of 10% trichroroacetic acid(TCA) was added and leaved for 10 minutes. The precipitated protain was removed by using centrifuge. To the supernatant, final concentration of 0.2% of thiobarbituric acid is added to prepare 1 ml of solution and reacted at 100° C. for 1 hour. Adsorption was measured at 535 nm and converted and obtained by comparing the contents of MDA with 1,1,3,3-tetraethoxypropane as standard. (Yagi K A, 1976, Simple fluorometric assay for lipoperoxide in blood plasma, Biochem Med 15: 212-216).
NO which is over-formed by glutamate and superoxide anion are each combined to form peroxynitrite. (Almeida et al. 1998). Such formed peroxynitrite with free radical which is formed by glutamate toxicity induce oxidative stress on neurons and induce lipid-peroxidation of cells. Wuweizusu C suppressed 67% of lipid-peroxidation induced by glutamate.
as §6

COc1cc2c(c(OC)c1OC)-c1c(cc(OC)c(OC)c1OC)C[C@H](C)[C@H](C)C2 [Deoxyschizandrin, deoxyschizandrin]
Viability (%) NMDA-insulted [1]: 11.0 ± 3.5%
neuroprotective activity against toxicity induced by KA (in words) [2]: selectively neuroprotective activity
Viability (%) KA-insulted [2]: 38.2 ± 4.2 %
effect on Ca2+ influx by glutamate (in words) [3]: did not significantly effect
Protection ([Ca2+]i) [3]: 20.5%
[Ca2+]i [3]: 350.7 ± 18.2 nM
Nitrate [4]: 121.9 ± 3.1 nM
Protection (NO content) [4]: 40.2%
GSH-px [5]: 15.3 ± 3.0 μmol NADPH consumed/min/mg pro
Protection (GSH-px activity) [5]: 62.1%
Protection (GSH-px activity) ([5]; listed as deoxyschizandrin): about 50%
suppression of lipid-peroxidation induced by glutamate (in words) [6]: significantly suppressed
Protection (MDA content, lipid-peroxidation) [6]: 49.2%
MDA [6]: 135.4 ± 10.7 nmol/mg protein

COc1cc2c(c(OC)c1OC)-c1c(cc3c(c1OC)OCO3)C[C@H](C)[C@H](C)C2 [Gomisin N, gomisin N]
neuroprotective activity against toxicity induced by NMDA (in words) [1]: relatively better neuroprotective activity
Viability (%) NMDA-insulted [1]: 45.5 ± 6.8 %
Viability (%) KA-insulted [2]: 25.5 ± 4.5%
Protection ([Ca2+]i) [3]: 60.3%
Protection ([Ca2+]i) ([3]; listed as gomisin N): 50.3%
[Ca2+]i [3]: 218.0 ± 11.9 nM
Nitrate [4]: 111.4 ± 3.3 nM
Protection (NO content) [4]: 60.2%
GSH-px [5]: 14.6 ± 4.1 μmol NADPH consumed/min/mg pro
Protection (GSH-px activity) [5]: 56.8%
Protection (GSH-px activity) ([5]; listed as gomisin N): about 50%
suppression of lipid-peroxidation induced by glutamate (in words) [6]: significantly suppressed
Protection (MDA content, lipid-peroxidation) [6]: 57.0%
MDA [6]: 125.6 ± 11.1 nmol/mg protein

COc1c2c(cc3c1-c1c(cc4c(c1OC)OCO4)C[C@H](C)[C@H](C)C3)OCO2 [Wuweizisu C, wuweizisu C]
neuroprotective activity against toxicity induced by NMDA (in words) [1]: has neuroprotective activity
Viability (%) NMDA-insulted [1]: 52.1 ± 7.1 %
Viability (%) KA-insulted [2]: 15.0 ± 3.9%
Protection ([Ca2+]i) [3]: 67.9%
[Ca2+]i [3]: 192.6 ± 9.1 nM
Nitrate [4]: 107.6 ± 2.9 nM
Protection (NO content) [4]: 65.8%
GSH-px [5]: 13.9 ± 3.9 μmol NADPH consumed/min/mg pro
Protection (GSH-px activity) [5]: 49.5%
Protection (GSH-px activity) ([5]; listed as wuweizisu C): about 50%
Protection (MDA content, lipid-peroxidation) [6]: 68.7%
MDA [6]: 110.5 ± 9.0 nmol/mg protein
Protection (MDA content, lipid-peroxidation) ([6]; listed as Wuweizusu C): 67%
